Laboratory results taken from patent US9725445B2, “Cycloalkyl nitrile pyrazolo pyridones as Janus kinase inhibitors” (Merck Sharp & Dohme Corp., priority 2013, dated 2017).
Counter-ions that a name gives are not always drawn. Like-named read-outs stand apart in the source and are kept apart here.

Tests used:
JAK1 = JAK1 (Homo sapiens (Human), UniProt P23458); assay: Jak biochemical HTRF assay, JAK1; settings: recombinant GST-tagged catalytic domain
JAK2 = JAK2 (Homo sapiens (Human), UniProt O60674); assay: Jak biochemical HTRF assay, JAK2; settings: recombinant GST-tagged catalytic domain
Description: Jak Biochemical HTRF Assay Protocol
The ability of compounds to inhibit the activity of JAK1, JAK2, JAK3, and Tyk2 was measured using a recombinant purified GST-tagged catalytic domain for each enzyme (Invitrogen JAK1 #M4290, JAK2 #M4290, JAK3 #M4290, Tyk2 #M4290) in an HTRF format biochemical assay. […] The basic assay protocol is as follows: First, 250 nL of diluted compounds in DMSO were dispensed into the wells of a dry 384-well Black plate (Greiner #781076) using a Labcyte Echo 555 acoustic dispenser. Subsequent reagent additions employed an Agilent Bravo. […] After equilibration, 2 μL of 10×ATP in 1× assay buffer was added to initiate the kinase reaction and the plates were shaken and then incubated at room temperature for 120 minutes. […] Plates were shaken and centrifuged and then incubated 60 minutes at room temperature and then read on a Perkin Elmer Envision (λex=337 nm, λem=665 and 615 nm, TRF delay time=20 μs). HTRF signal=10,000*665 nm reading/615 nm reading. After normalization to untreated controls, the percent inhibition of the HTRF signal at each compound concentration was calculated. The plot of percent inhibition versus the log of compound concentration was fit with a 4-parameter dose response equation to calculate IC50 values.
Final Reaction Conditions were:
Examples of the instant invention were evaluated in JAK1 and JAK2 in vitro binding assays.

[1] = HTRF biochemical assay, read-out: JAK1 IC50
[2] = HTRF biochemical assay, read-out: JAK2 IC50

Sequence of JAK2 (O60674 849-1124): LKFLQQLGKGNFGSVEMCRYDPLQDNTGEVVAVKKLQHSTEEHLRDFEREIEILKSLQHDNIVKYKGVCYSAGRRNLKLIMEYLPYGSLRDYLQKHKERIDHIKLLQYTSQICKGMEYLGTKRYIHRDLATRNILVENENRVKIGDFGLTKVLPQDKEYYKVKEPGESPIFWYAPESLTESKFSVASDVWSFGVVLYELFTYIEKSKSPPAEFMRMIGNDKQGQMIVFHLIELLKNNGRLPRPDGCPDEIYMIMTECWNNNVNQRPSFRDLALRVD
Sequence of JAK1 (P23458 875-1153): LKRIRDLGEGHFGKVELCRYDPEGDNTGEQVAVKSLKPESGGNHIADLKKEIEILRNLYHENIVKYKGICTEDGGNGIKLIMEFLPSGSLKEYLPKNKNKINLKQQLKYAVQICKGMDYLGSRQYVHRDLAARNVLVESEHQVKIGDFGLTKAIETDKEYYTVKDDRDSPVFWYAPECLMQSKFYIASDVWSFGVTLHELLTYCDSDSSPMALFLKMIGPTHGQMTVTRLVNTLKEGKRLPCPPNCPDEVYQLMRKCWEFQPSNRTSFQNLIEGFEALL

Structure (SMILES)	IC50 (JAK1; [1]) [nM]	IC50 (JAK2; [2]) [nM]	IC50 (JAK1; JAK1 IC50, HTRF biochemical assay) [nM]	IC50 (JAK2; JAK2 IC50, HTRF biochemical assay) [nM]
N#C[C@H]1CCCC[C@@H]1n1nc(Nc2cccc(Cn3cncn3)c2)c2c(=O)[nH]ccc21 [Example 3-50, (1S,2S)-2-(4-oxo-3-{[3-(1H-1,2,4-triazol-1-ylmethyl)phenyl]amino}-4,5-dihydro-1H-pyrazolo[4,3-c]pyridin-1-yl)cyclohexanecarbonitrile]	0.5	1.3		
CC(C)(C)OC(=O)NCc1ccc(Nc2nn([C@H]3CCCC[C@@H]3C#N)c3cc[nH]c(=O)c23)cc1 [Example 3-32, tert-butyl [4-({1-[(1S,2S)-2-cyanocyclohexyl]-4-oxo-4,5-dihydro-1H-pyrazolo[4,3-c]pyridin-3-yl}amino)benzyl]carbamate]	0.45	1.5		
CN(C)[C@H]1CC[C@H](n2nc(Nc3ccc(Cl)c(F)c3)c3c(=O)[nH]ccc32)[C@@H](C#N)C1 [Example 5-2, (1S,2S,5S)-2-(3-((4-Chloro-3-fluorophenyl)amino)-4-oxo-4,5-dihydro-1H-pyrazolo[4,3-c]pyridin-1-yl)-5-(dimethylamino)cyclohexanecarbonitrile]	0.6	14		
N#C[C@H]1CCC[C@@H]1n1nc(Nc2ccc3c(c2)CN(CC(F)(F)F)C3=O)c2c(=O)[nH]ccc21 [Example 3-97, (1S,2S)-2-(4-oxo-3-{[1-oxo-2-(2,2,2-trifluoroethyl)-2,3-dihydro-1H-isoindol-5-yl]amino}-4,5-dihydro-1H-pyrazolo[4,3-c]pyridin-1-yl)cyclopentanecarbonitrile]	0.082	0.44		
N#C[C@H]1CCCC[C@@H]1n1nc(Nc2ccc3c(c2)CN([C@H]2CC[C@@H](C(=O)O)CC2)S3(=O)=O)c2c(=O)[nH]ccc21 [Example 16-2, (1S,4S)-4-(5-((1-((1S,2S)-2-cyanocyclohexyl)-4-oxo-4,5-dihydro-1H-pyrazolo[4,3-c]pyridin-3-yl)amino)-1,1-dioxidobenzo[d]isothiazol-2(3H)-yl)cyclohexanecarboxylic acid]	0.069	0.47		
N#C[C@H]1CCCC[C@@H]1n1nc(Nc2ccc3c(c2)CN(CC2CC2)S3(=O)=O)c2c(=O)[nH]ccc21 [Example 3-63, (1S,2S)-2-(3-{[2-(cyclopropylmethyl)-1,1-dioxido-2,3-dihydro-1,2-benzisothiazol-5-yl]amino}-4-oxo-4,5-dihydro-1H-pyrazolo[4,3-c]pyridin-1-yl)cyclohexanecarbonitrile]	0.066	0.54		
COCC(C)(O)c1cc(Nc2nn([C@H]3CCCC[C@@H]3C#N)c3cc[nH]c(=O)c23)ccc1S(C)(=O)=O (stereo partly drawn) [Example 3-85, (1S,2S)-2-(3-{[3-(1-hydroxy-2-methoxy-1-methylethyl)-4-(methylsulfonyl)phenyl]amino}-4-oxo-4,5-dihydro-1H-pyrazolo[4,3-c]pyridin-1-yl)cyclohexanecarbonitrile]	3	4.2		
N#C[C@H]1CCC[C@@H]1n1nc(Nc2ccc(C(N)C(F)(F)F)cc2)c2c(=O)[nH]ccc21 (single isomer, unassigned) [Example 3-104, (1S,2S)-2-[3-({4-[(1S or 1R)-1-amino-2,2,2-trifluoroethyl]phenyl}amino)-4-oxo-4,5-dihydro-1H-pyrazolo[4,3-c]pyridin-1-yl]cyclopentanecarbonitrile]	0.22	0.59		
COCCn1cc(-c2ccc(Nc3nn([C@H]4CCCC[C@@H]4C#N)c4cc[nH]c(=O)c34)cc2)cn1 [Example 3-145, (1S,2S)-2-[3-({4-[1-(2-methoxyethyl)-1H-pyrazol-4-yl]phenyl}amino)-4-oxo-4,5-dihydro-1H-pyrazolo[4,3-c]pyridin-1-yl]cyclohexanecarbonitrile]	0.12	1.8		
CC(C)(C)OC(=O)N1[C@@H]2CC[C@H]1C[C@@H](c1ccc(Nc3nn([C@H]4CCCC[C@@H]4C#N)c4cc[nH]c(=O)c34)cc1)C2 (single isomer, unassigned) [Example 3-165]			2.6	7.9
CC(C)(C)OC(=O)NCc1cc(F)cc(Nc2nn([C@H]3CCCC[C@@H]3C#N)c3cc[nH]c(=O)c23)c1 [Example 3-36, tert-butyl [3-({1-[(1S,25)-2-cyanocyclohexyl]-4-oxo-4,5-dihydro-1H-pyrazolo[4,3-c]pyridin-3-yl}amino)-5-fluorobenzyl]carbamate]	2.3	3.8		
CC1(O)CN([C@H]2CC[C@H](n3nc(Nc4ccc(Cl)cc4)c4c(=O)[nH]ccc43)[C@@H](C#N)C2)C1 [Example 5-22, (1S,2S,5S)-2-(3-((4-chlorophenyl)amino)-4-oxo-4,5-dihydro-1H-pyrazolo[4,3-c]pyridin-1-yl)-5-(3-hydroxy-3-methylazetidin-1-yl)cyclohexanecarbonitrile]	0.24	4		
C[C@H](NC1CCC(n2nc(Nc3ccc(Cl)cc3)c3c(=O)[nH]ccc32)C(C#N)C1)C1CC1 (stereo in doubt) [Example 4-4, (1S,2S,5S)-2-(3-((4-Chlorophenyl)amino)-4-oxo-4,5-dihydro-1H-pyrazolo[4,3-c]pyridin-1-yl)-5-(((S)-1-cyclopropylethyl)amino)cyclohexanecarbonitrile]	7.8	525		
N#C[C@H]1CCCC[C@@H]1n1nc(Nc2cccc(Cn3cccn3)c2)c2c(=O)[nH]ccc21 [Example 3-43, (1S,2S)-2-(4-oxo-3-{[3-(1H-pyrazol-1-ylmethyl)phenyl]amino}-4,5-dihydro-1H-pyrazolo[4,3-c]pyridin-1-yl)cyclohexanecarbonitrile]	1.4	1.7		
N#C[C@H]1CCCC[C@@H]1n1nc(Nc2ccc([C@@H]3C[C@H]4CC[C@@H](C3)N4)cc2)c2c(=O)[nH]ccc21 [Example 20-1, (1S,2S)-2-(3-((4-((1R,3S,5S)-8-azabicyclo[3.2.1]octan-3-yl)phenyl)amino)-4-oxo-4,5-dihydro-1H-pyrazolo[4,3-c]pyridin-1-yl)cyclohexanecarbonitrile hydrochloride]	0.38	0.57		
N#C[C@H]1CCCC[C@@H]1n1nc(Nc2ccc3c(c2)CN(CC(F)(F)F)C3)c2c(=O)[nH]ccc21 [Example 3-61, (1S,2S)-2-(4-oxo-3-{[2-(2,2,2-trifluoroethyl)-2,3-dihydro-1H-isoindol-5-yl]amino}-4,5-dihydro-1H-pyrazolo[4,3-c]pyridin-1-yl}cyclohexanecarbonitrile]	0.55	1.1		
CN(C)Cc1cccc(Nc2nn([C@H]3CCCC[C@@H]3C#N)c3cc[nH]c(=O)c23)c1 [Example 3-34, (1S,2S)-2-[3-({3-[(dimethylamino)methyl]phenyl}amino)-4-oxo-4,5-dihydro-1H-pyrazolo[4,3-c]pyridin-1-yl]cyclohexanecarbonitrile]	1.1	1.1		
N#C[C@H]1CCCC[C@@H]1n1nc(Nc2ccc(CNC(=O)c3cnco3)cc2)c2c(=O)[nH]ccc21 [Example 3-29, N-[4-({1-[(1S,2S)-2-cyanocyclohexyl]-4-oxo-4,5-dihydro-1H-pyrazolo[4,3-c]pyridin-3-yl}amino)benzyl]-1,3-oxazole-5-carboxamide]	0.32	1.5		
N#C[C@H]1CCC[C@@H]1n1nc(Nc2ccnc(F)c2)c2c(=O)[nH]ccc21 [Example 3-92, (1S,2S)-2-{3-[(2-fluoropyridin-4-yl)amino]-4-oxo-4,5-dihydro-1H-pyrazolo[4,3-c]pyridin-1-yl}cyclopentanecarbonitrile]	0.64	5.7		
N#C[C@H]1CCCC[C@@H]1n1nc(Nc2ccc(C(O)C(F)F)cc2)c2c(=O)[nH]ccc21 (stereo partly drawn) [Example 3-70, (1S,2S)-2-(3-{[4-(2,2-difluoro-1-hydroxyethyl)phenyl]amino}-4-oxo-4,5-dihydro-1H-pyrazolo[4,3-c]pyridin-1-yl)cyclohexanecarbonitrile]		0.61		
CC(C)(C)S(=O)(=O)c1ccc(Nc2nn([C@H]3CC(F)(F)C[C@H]3C#N)c3cc[nH]c(=O)c23)cc1 (single isomer, unassigned) [Example 22-1, (1R,2S or 1S,2R)-2-(3-((4-(tert-Butylsulfonyl)phenyl)amino)-4-oxo-4,5-dihydro-1H-pyrazolo[4,3-c]pyridin-1-yl)-4,4-difluorocyclopentanecarbonitrile]		3.5		
CC(C)S(=N)(=O)c1ccc(Nc2nn(C3CCC[C@@H]3C#N)c3cc[nH]c(=O)c23)cc1 (single isomer, unassigned) [Example 3-108, (1S,2S)-2-[3-({4-[(S or R)-S-(1-methylethyl)sulfonimidoyl]phenyl}amino)-4-oxo-4,5-dihydro-yl]cyclopentanecarbonitrile]		0.5		
CC(C)NC(c1ccc(Nc2nn([C@H]3CCC[C@@H]3C#N)c3cc[nH]c(=O)c23)cc1)C(F)(F)F (single isomer, unassigned) [Example 3-115, (1S,2S)-2-{4-oxo-3-[(4-{(1R or 1S)-2,2,2-trifluoro-1-[(1-methylethyl)amino]ethyl}phenyl)amino]-4,5-dihydro-1H-pyrazolo[4,3-c]pyridin-1-yl}cyclopentanecarbonitrile]		0.33		
